In patent US11814652B2, “Pluripotent stem cell differentiation-promoting agent” (Oriental Yeast Co., Ltd., priority 2018, dated 2023):

Legend:
Format in all cases: cell-based
iPS cells 253G1 strain = assay: Cell number in endodermal differentiation-induction after undifferentiated culture with β-NMN (Example 5); details: β-NMN 0.25 or 1 mM in culture medium for iPS cells before endodermal differentiation-induction; 7th day after seeding; versus no β-NMN
Procedure: The effects of culturing in the presence of β-NMN before induction of differentiation on the endodermal differentiation-induction of iPS cells was examined. As the iPS cells, the 253G1 strain was used. iPS cells seeded on a culture dish coated with Matrigel (manufactured by Corning Incorporated) according to the manufacturer's protocol were cultured in a culture medium prepared by adjusting a culture medium for iPS cells to have a final concentration of β-NMN 0, 0.25 or 1 mM, and a final concentration of Rock inhibitor of 10 μM for 1 day. From the 1st day after seeding, the culture medium was replaced every day with a culture medium obtained by removing the Rock inhibitor from the culture medium at the time of seeding. When the confluent reached 70 to 80%, the iPS cells were detached from the culture dish and collected. The collected iPS cells were seeded at 3×10^5 cells/well in a 24-well plate coated with Matrigel (manufactured by Corning Incorporated) according to the manufacturer's protocol. The cells in the 24-well plate were cultured for 1 day in a culture medium prepared by removing β-NMN from the culture medium when culturing in the culture dish and adjusting to have a final concentration of Rock inhibitor of 10 μM. […] Cells on the 7th day after seeding were sampled and the numbers of cells were counted.

[1] = tested on: Human adipose tissue-derived mesenchymal stem cells; assay: Alizarin Red S staining after bone differentiation-induction of mesenchymal stem cells grown with β-NMN (Example 8); details: growth medium supplemented with 0.1 mM or 0.25 mM of β-NMN; 14 days after initiation of bone differentiation-induction; compared with 0 mM
Text: The effects of culturing in the presence of β-NMN before bone differentiation-induction of mesenchymal stern cells were examined. Human adipose tissue-derived mesenchymal stem cells (manufactured by Lonza, Cat #PT5006) were used as the mesenchymal stem cells. As a growth medium, a culture medium prepared by appropriately adding β-MNM to “MSCGM Bullet Kit” (manufactured by Lonza, Cat #PT3001) was used. As a bone differentiation-inducing culture medium, a culture medium prepared by adjusting an α-MEM culture medium to have a final concentration of fetal bovine serum of 10% by volume, a final concentration of dexamethasone of 10 nM, a final concentration of β-glycerophosphate of 10 mM, a final concentration of ascorbic acid of 50 μg/mL, and a final concentration of penicillin-streptomycin of 0.1%. The mesenchymal stem cells were seeded in a culture dish at 5×10^3 cells/cm^2 and statically cultured in a growth culture medium not containing β-MNM at 37° C., 5% by volume (CO2) for 1 day. From one day after seeding, the culture medium was replaced every 2 days with a growth culture medium adjusted to have a final concentration of β-MNM of 0, 0.1, or 0.25 mM. Further, when the cell density in the culture dish reached 80 to 90% of the confluent, the cells were passaged. […]

[2] = tested on: Human adipose tissue-derived mesenchymal stem cells; assay: Oil red O staining after adipocyte differentiation-induction of mesenchymal stem cells grown with β-NMN (Example 9); details: growth medium supplemented with 0.1 mM or 0.25 mM of β-NMN; 14th day of adipocyte differentiation-induction; compared with 0 mM
Text: The effects of culturing in the presence of β-NMN before adipocyte differentiation-induction of mesenchymal stern cells were examined. In the same manner as in Example 8, Human adipose tissue-derived mesenchymal stem cells (manufactured by Lonza, Cat #PT5006) were used as the mesenchymal stem cells. As a growth culture medium, a culture medium prepared by appropriately adding β-MNM to “MSCGM Bullet Kit” (manufactured by Lonza, Cat #PT3001) was used as in Example 8. As an adipocyte differentiation-inducing culture medium, a culture medium prepared by adjusting a DMEM-High Glucose medium to have a final concentration of fetal bovine serum of 10% by volume, a final concentration of IBMX of 0.5 mM, a final concentration of dexamethasone of 1 μM, a final concentration of indomethacin of 200 μM, and a final concentration of penicillin-streptomycin of 0.1% was used. The culture of the mesenchymal stem cells before differentiation-induction was performed in the same manner as in Example 8. The differentiation induction was performed in the same manner as in Example 8 except that the adipocyte differentiation-inducing culture medium was used instead of the bone differentiation-inducing culture medium. On the 14th day from the initiation of the differentiation-induction, the staining test and the cell RNA recovery were performed. […]

NC(=O)c1ccc[n+]([C@@H]2O[C@H](COP(=O)([O-])O)[C@@H](O)[C@H]2O)c1 [β-NMN, β-nicotinamide mononucleotide]
cell number (iPS cells 253G1 strain): no clear difference
calcium deposition (Alizarin Red S staining) [1]: strongly observed
accumulation of lipid droplets (oil red O staining) [2]: more accumulation of lipid droplets
